The results in this text go back to US9688671B2, “Metalloenzyme inhibitor compounds” (Viamet Pharmaceuticals, Inc., priority 2013, dated 2017).

Molecules are shown by their SMILES. Values after ≈ are worked out from the molar mass of the structure shown.

One test relates to C. albicans. Description: Minimum Inhibitory Concentration (MIC), C. albicans growth inhibition (CLSI M27-A2). Particulars: Candida albicans; about 50% growth reduction; approximately 48 h at 35±1° C.; RPMI+MOPS. Format: cell-based. As for the experimental part:
Compounds were assessed for their ability to inhibit the growth of common strains of fungus, C. albicans using a standardized procedure (CLSI M27-A2). Stock solutions of the test compounds and standards were prepared in DMSO at 1600 μg/mL (C. albicans). Eleven, serial, one-half dilutions of compounds were prepared in 96-well plates in RPMI+MOPS. The assay concentration ranges were 1-0.001 μg/mL (C. albicans). Cell suspensions of C. albicans were prepared and added to each well at concentrations of approximately 3.7×10^3 colony-forming-units per milliliter (cfu/mL). All testing was in duplicate. The inoculated plates were incubated for approximately 48 h at 35±1° C. At the completion of incubation the wells of each plate were evaluated visually for the presence of fungal growth. […] For voriconazole the MIC was the concentration which reduced C. albicans growth by 50% (per CLSI, M27-A2). For QC purposes C. krusei isolate ATCC 6258 (4.0×10^3 cfu/mL) was included in the VOR assay.

The subject of the next test is A. fumigatus. Description: A. fumigatus MIC (CLSI M38-A2). The following applies: Aspergillus fumigatus, read-out: Aspergillus MIC (Aspergillus fumigatus MIC50).
Another test deals with Coccidioides posadasii. Description: microbe, parasite or virus in culture. The following applies: 48 h. Format: cell-based.

`OC(Cn1cnnn1)(c1ccc(F)cc1F)C(F)(F)c1ccc(C#Cc2ccc(OCc3ccc(Cn4cccn4)cc3)cc2)cn1` (racemic) [Example 13]: the MIC50 with C. albicans was 0.016 µg/mL (≈ 0.025 µM); with A. fumigatus, 0.25 µg/mL (≈ 0.391 µM). On to `OC(Cn1cnnn1)(c1ccc(F)cc1F)C(F)(F)c1ccc(C#Cc2ccc(CNc3ccc(F)cc3)cc2)cn1` (racemic) [Example 8, 2-(2,4-difluorophenyl)-1,1-difluoro-1-(5-((4-((4-fluorophenylamino)methyl)phenyl)ethynyl)pyridin-2-yl)-3-(1H-tetrazol-1-yl)propan-2-ol], for which the MIC50 is 0.004 µg/mL (≈ 0.00694 µM) with C. albicans and 0.5 µg/mL (≈ 0.867 µM) in the test with A. fumigatus. As to `C[C@@H](c1ncncc1F)[C@](O)(Cn1cncn1)c1ccc(F)cc1F` [Voriconazole, voriconazole, reference compound], the MIC50 against C. albicans came out at 0.016 µg/mL (≈ 0.0458 µM); in the test with A. fumigatus it was 0.25 µg/mL (≈ 0.716 µM).

For the compound `N#Cc1ccc(NCc2ccc(C#Cc3ccc(C(F)(F)C(O)(Cn4cnnn4)c4ccc(F)cc4F)nc3)cc2)cc1` (racemic) [Example 2, 4-(4-((6-(2-(2,4-difluorophenyl)-1,1-difluoro-2-hydroxy-3-(1H-tetrazol-1-yl)propyl)pyridin-3-yl)ethynyl)benzylamino)benzonitrile], the MIC50 against C. albicans was 0.016 µg/mL (≈ 0.0274 µM); with A. fumigatus, 1 µg/mL (≈ 1.71 µM). As to `OC(Cn1cnnn1)(c1ccc(F)cc1F)C(F)(F)c1ccc(C#Cc2ccc(OCc3ccc(C(F)(F)F)s3)cc2)cn1` (racemic) [Example 5, 2-(2,4-difluorophenyl)-1,1-difluoro-3-(1H-tetrazol-1-yl)-1-(5-((4-((5-(trifluoromethyl)thiophen-2-yl)methoxy)phenyl)ethynyl)pyridin-2-yl)propan-2-ol], in the test on Coccidioides posadasii, the MIC50 amounted to 0.12 µg/mL (≈ 0.189 µM). `OC(Cn1cnnn1)(c1ccc(F)cc1F)C(F)(F)c1ccc(C#Cc2ccc(CNc3ccc(Cl)cc3)cc2)cn1` (racemic) [Example 7, 1-(5-((4-((4-chlorophenylamino)methyl)phenyl)ethynyl)pyridin-2-yl)-2-(2,4-difluorophenyl)-1,1-difluoro-3-(1H-tetrazol-1-yl)propan-2-ol] came in with an MIC50 with Coccidioides posadasii of 0.12 µg/mL (≈ 0.202 µM).

Take `N#Cc1ccc(CC(=O)c2ccc(C#Cc3ccc(C(F)(F)C(O)(Cn4cnnn4)c4ccc(F)cc4F)nc3)cc2)cc1` (racemic) [Example 1, 4-(2-(4-((6-(2-(2,4-difluorophenyl)-1,1-difluoro-2-hydroxy-3-(1H-tetrazol-1-yl)propyl)pyridin-3-yl)ethynyl)phenyl)-2-oxoethyl)benzonitrile]: the MIC50 against C. albicans is 0.004 µg/mL (≈ 0.00671 µM); in the test with A. fumigatus, 0.5 µg/mL (≈ 0.838 µM). For `CN(C)Cc1ccc(COc2ccc(C#Cc3ccc(C(F)(F)C(O)(Cn4cnnn4)c4ccc(F)cc4F)nc3)cc2)cc1` (racemic) [Example 11, 2-(2,4-difluorophenyl)-1-(5-((4-(4-((dimethylamino)methyl)benzyloxy)phenyl)ethynyl)pyridin-2-yl)-1,1-difluoro-3-(1H-tetrazol-1-yl)propan-2-ol], the values for the MIC50 against C. albicans and with A. fumigatus were 0.016 µg/mL (≈ 0.0259 µM) and 0.5 µg/mL (≈ 0.811 µM), respectively. `OC(Cn1cnnn1)(c1ccc(F)cc1F)C(F)(F)c1ccc(C#Cc2ccc(OCc3ccc(F)s3)cc2)cn1` (racemic) [Example 6, 2-(2,4-difluorophenyl)-1,1-difluoro-1-(5-((4-((5-fluorothiophen-2-yl)methoxy)phenyl)ethynyl)pyridin-2-yl)-3-(1H-tetrazol-1-yl)propan-2-ol]: the MIC50 with C. albicans worked out at 0.008 µg/mL (≈ 0.0137 µM); with A. fumigatus, 0.5 µg/mL (≈ 0.857 µM).
